Test results published in PMC10709409, “Cryo-EM structures of human organic anion transporting polypeptide OATP1B1” (Cell Research, 2023).

Legend:
OATP1B1 [1] = biological target: T1, OATP1B1 (Homo sapiens, UniProt Q9Y6L6); assay: cryo-EM structure (outward-open, […] Å); also cell DCF uptake assay; assay type: binding; parameters: gene SLCO1B1; human OATP1B1 with C-terminal tandem His and Flag tags
T1 sequence (Q9Y6L6 1-691): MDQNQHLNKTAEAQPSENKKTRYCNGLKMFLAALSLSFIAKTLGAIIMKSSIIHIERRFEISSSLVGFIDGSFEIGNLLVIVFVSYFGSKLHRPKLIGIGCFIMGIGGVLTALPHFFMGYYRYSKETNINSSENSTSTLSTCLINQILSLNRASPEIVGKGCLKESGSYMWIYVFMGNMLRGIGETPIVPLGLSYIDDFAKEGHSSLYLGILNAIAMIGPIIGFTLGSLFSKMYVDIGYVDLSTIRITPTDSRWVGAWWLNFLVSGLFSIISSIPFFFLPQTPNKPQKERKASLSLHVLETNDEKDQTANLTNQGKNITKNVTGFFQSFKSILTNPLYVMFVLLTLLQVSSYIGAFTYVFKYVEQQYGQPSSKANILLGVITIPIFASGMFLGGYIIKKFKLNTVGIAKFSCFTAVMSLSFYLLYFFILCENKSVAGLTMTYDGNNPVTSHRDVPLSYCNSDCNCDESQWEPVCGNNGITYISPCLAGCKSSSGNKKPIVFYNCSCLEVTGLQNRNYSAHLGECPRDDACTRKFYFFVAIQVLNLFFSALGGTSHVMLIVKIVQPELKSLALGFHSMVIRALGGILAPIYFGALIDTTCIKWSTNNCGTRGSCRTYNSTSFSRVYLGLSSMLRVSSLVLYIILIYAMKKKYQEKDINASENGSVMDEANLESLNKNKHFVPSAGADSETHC

OATP1B1 [2] = biological target: T1, OATP1B1; assay: cryo-EM structure (inward-open, […] Å); also [3H]-E3S proteoliposome counterflow and DCF uptake inhibition; assay type: binding; parameters: gene SLCO1B1; human OATP1B1 with C-terminal tandem His and Flag tags
OATP1B1 [3] = biological target: T1, OATP1B1; parameters: gene SLCO1B1

SMILES: O=C1OC2(c3cc(Cl)c(O)cc3Oc3cc(O)c(Cl)cc32)c2ccccc21 [D, 2′,7′-dichlorofluorescein]
- cryo-EM structure (outward-open, 2.92 Å); also cell DCF uptake assay (OATP1B1 [1]): DCF extends towards a minor hydrophilic pocket within the interior of the CTD by forming hydrogen-bond interactions with N544 and S548

SMILES: C[C@]12CC[C@H]3c4ccc(OS(=O)(=O)O)cc4CC[C@@H]3[C@@H]1CCC2=O [E, estrone-3-sulfate]
- cryo-EM structure (inward-open, 3.2 Å); also [3H]-E3S proteoliposome counterflow (OATP1B1 [2]): The EM density of E3S in OATP1B1–Ein is unambiguously resolved, allowing us to discern the pose of the E3S

SMILES: COc1ccc2c(O[C@@H]3C[C@H]4C(=O)N[C@]5(C(=O)NS(=O)(=O)C6CC6)C[C@H]5/C=C\CCCCN(C)C(=O)[C@@H]4C3)cc(-c3nc(C(C)C)cs3)nc2c1C [S, simeprevir]
- cryo-EM structure (outward-open, 3.73 Å); also DCF uptake inhibition in HEK293T (OATP1B1 [3]): Bilirubin and simeprevir occupy the major pocket located in the central cavity, while DCF binds to the minor pocket

SMILES: C=CC1=C(C)/C(=C/c2[nH]c(Cc3[nH]c(/C=C4\NC(=O)C(C)=C4C=C)c(C)c3CCC(=O)O)c(CCC(=O)O)c2C)NC1=O [B, bilirubin]
- cryo-EM structure (outward-open, 3.73 Å); also DCF uptake inhibition in HEK293T (OATP1B1 [3]): Bilirubin and simeprevir occupy the major pocket located in the central cavity, while DCF binds to the minor pocket
